Source: ChEMBL document CHEMBL1132529 (Bioorg Med Chem Lett, 1999)

Biological target: T1, Neutrophil elastase (Homo sapiens, UniProt P08246)
T1 sequence (P08246 whole entry): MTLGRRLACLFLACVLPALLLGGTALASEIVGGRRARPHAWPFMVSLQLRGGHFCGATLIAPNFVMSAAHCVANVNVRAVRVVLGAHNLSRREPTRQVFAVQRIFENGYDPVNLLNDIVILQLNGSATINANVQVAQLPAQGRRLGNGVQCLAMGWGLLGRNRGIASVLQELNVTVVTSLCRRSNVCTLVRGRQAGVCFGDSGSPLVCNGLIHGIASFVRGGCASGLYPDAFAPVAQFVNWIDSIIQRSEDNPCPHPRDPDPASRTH
Assay: Inhibitory constant for human neutrophil elastase

CC[C@@H](C)[C@H](NCc1ccccc1)C(=O)N[C@@H](CCCCNC(=O)C12CC3CC(CC(C3)C1)C2)C(=O)N[C@@H](CS)C(=O)N[C@H](C(=O)O)C(C)C
Ki: 270 µM
